Data published in patent US8563542B2 (Cyclacel Limited, priority 2007, dated 2013).
pIC50: −log10 of the molar value.

biological target: PLK1 (Homo sapiens, UniProt P53350); assay: PLK1 protein kinase assay (CDC25C phosphorylation, [γ-32P]-ATP); assay type: biochemical; settings: Table 1; read-out: PLK1 IC50
Sequence (P53350 whole entry): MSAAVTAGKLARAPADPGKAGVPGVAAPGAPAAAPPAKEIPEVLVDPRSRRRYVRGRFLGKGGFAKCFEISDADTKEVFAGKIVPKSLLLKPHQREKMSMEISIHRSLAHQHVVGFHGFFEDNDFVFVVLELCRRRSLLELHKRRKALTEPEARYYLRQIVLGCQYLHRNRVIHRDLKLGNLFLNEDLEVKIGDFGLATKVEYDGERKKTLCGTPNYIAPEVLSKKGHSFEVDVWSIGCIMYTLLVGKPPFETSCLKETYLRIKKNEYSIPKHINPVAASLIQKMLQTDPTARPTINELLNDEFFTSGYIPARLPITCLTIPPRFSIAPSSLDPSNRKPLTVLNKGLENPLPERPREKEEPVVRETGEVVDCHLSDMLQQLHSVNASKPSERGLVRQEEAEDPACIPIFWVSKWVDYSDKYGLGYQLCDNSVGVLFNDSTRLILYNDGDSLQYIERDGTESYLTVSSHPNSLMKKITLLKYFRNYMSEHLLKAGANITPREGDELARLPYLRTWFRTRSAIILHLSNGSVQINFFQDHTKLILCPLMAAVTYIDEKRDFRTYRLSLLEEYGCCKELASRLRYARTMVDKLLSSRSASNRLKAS

**Q.** `COc1cc(C(=O)NC2CCN(C)CC2)ccc1Nc1ncc2c(n1)N(C1CCCCC1)CCC(=O)N2` [compound 39, 4-(9-Cyclohexyl-6-oxo-6,7,8,9-tetrahydro-5H-pyrimido[4,5-b][1,4]diazepin-2-ylamino)-3-methoxy-N-(1-methyl-piperidin-4-yl)-benzamide] was tested. Which pIC50 did it give?
**A.** > 5.00

same assay, conditions: Table 2, PLK1 IC50; class symbols; read-out: PLK1 IC50

**Q.** With `CCC1CN(C2CCCC2)c2nc(Nc3ccc(C(=O)NC4CCN(C)CC4)cc3OC)ncc2N(C)C1=O` (stereo not shown) [compound 40, 4-(9-Cyclopentyl-7-ethyl-5-methyl-6-oxo-6,7,8,9-tetrahydro-5H-pyrimido[4,5-b][1,4]diazepin-2-ylamino)-3-methoxy-N-(1-methyl-piperidin-4-yl)-benzamide] as the compound, how does the pIC50 read?
**A.** > 7.00

**Q.** How did the pIC50 turn out when `COc1cccc(N2CCC(=O)N(C)c3cnc(Nc4ccc(C(=O)NC5CCN(C)CC5)cc4OC)nc32)c1` [compound 48, 3-Methoxy-4-[9-(3-methoxy-phenyl)-5-methyl-6-oxo-6,7,8,9-tetrahydro-5H-pyrimido[4,5-b][1,4]diazepin-2-ylamino]-N-(1-methyl-piperidin-4-yl)-benzamide] was run?
**A.** > 5.00

**Q.** With `COc1cc(C(=O)NC2CCN(C)CC2)ccc1Nc1ncc2c(n1)N(c1ccccc1F)CCC(=O)N2C` [compound 52, 4-[9-(2-Fluoro-phenyl)-5-methyl-6-oxo-6,7,8,9-tetrahydro-5H-pyrimido[4,5-b][1,4]diazepin-2-ylamino]-3-methoxy-N-(1-methyl-piperidin-4-yl)-benzamide] as the compound, how does the pIC50 read?
**A.** > 6.00

**Q.** How did the pIC50 turn out when `CCOc1cc(C(=O)NC2CCN(C)CC2)ccc1Nc1ncc2c(n1)N(C1CCCC1)CCC(=O)N2C` [compound 59, 4-(9-Cyclopentyl-5-methyl-6-oxo-6,7,8,9-tetrahydro-5H-pyrimido[4,5-b][1,4]diazepin-2-ylamino)-3-ethoxy-N-(1-methyl-piperidin-4-yl)-benzamide] was run?
**A.** > 6.00

**Q.** `COc1ccccc1Nc1ncc2c(n1)N(C1CCCC1)CCC(=O)N2C` [compound 60, 9-Cyclopentyl-2-(2-methoxy-phenylamine)-5-methyl-5,7,8,9-tetrahydro-pyrimido[4,5-b][1,4]diazepin-6-one] was tested. Which pIC50 did it give?
**A.** > 6.00

**Q.** With `CN1C(=O)CCN(C2CCCC2)c2nc(NCc3ccccc3)ncc21` [compound 62, 2-Benzylamino-9-cyclopentyl-5-methyl-5,7,8,9-tetrahydro-pyrimido[4,5-b][1,4]diazepin-6-one] as the compound, how does the pIC50 read?
**A.** > 6.00

**Q.** With `COc1cc(C(=O)NC2CCN(C)CC2)ccc1Nc1ncc2c(n1)N(CC1CC1)CCC(=O)N2C` [compound 65, 4-(9-Cyclopropylmethyl-5-methyl-6-oxo-6,7,8,9-tetrahydro-5H-pyrimido[4,5-b][1,4]diazepin-2-ylamino)-3-methoxy-N-(1-methyl-piperidin-4-yl)-benzamide] as the compound, how does the pIC50 read?
**A.** > 7.00

**Q.** How did the pIC50 turn out when `CCCCN1CCC(=O)N(C)c2cnc(Nc3ccc(C(=O)NC4CCN(C)CC4)cc3OC)nc21` [compound 66, 4-(9-Butyl-5-methyl-6-oxo-6,7,8,9-tetrahydro-5H-pyrimido[4,5-b][1,4]diazepin-2-ylamino)-3-methoxy-N-(1-methyl-piperidin-4-yl)-benzamide] was run?
**A.** > 6.00

**Q.** With `COc1cc(C(=O)NC2CCN(C)CC2)ccc1Nc1ncc2c(n1)N(C(C)C)CCC(=O)N2C` [compound 67, 4-(9-Isopropyl-5-methyl-6-oxo-6,7,8,9 tetrahydro-5H-pyrimido[4,5-b][1,4]diazepin-2-ylamino)-3-methoxy-N-(1-methyl-piperidin-4-yl)-benzamide] as the compound, how does the pIC50 read?
**A.** > 7.00

**Q.** `COc1cc(C(=O)NC2CCN(C)CC2)ccc1Nc1ncc2c(n1)N(CCC(C)C)CCC(=O)N2C` [compound 68, 3-Methoxy-4-[5-methyl-9-(3-methyl-butyl)-6-oxo-6,7,8,9-tetrahydro-5H-pyrimido[4,5-b][1,4]diazepin-2-ylamino]-N-(1-methyl-piperidin-4-yl)-benzamide] was tested. Which pIC50 did it give?
**A.** > 6.00

**Q.** With `COc1cc(C(=O)NC2CCN(C)CC2)ccc1Nc1ncc2c(n1)N(CC1CCCC1)CCC(=O)N2C` [compound 69, 4-(9-Cyclopentylmethyl-5-methyl-6-oxo-6,7,8,9-tetrahydro-5H-pyrimido[4,5-b][1,4]diazepin-2-ylamino)-3-methoxy-N-(1-methyl-piperidin-4-yl)-benzamide] as the compound, how does the pIC50 read?
**A.** > 6.00

**Q.** How did the pIC50 turn out when `COc1ccc(Nc2ncc3c(n2)N(C2CCCC2)CCC(=O)N3C)c(OC)c1` [compound 71, 9-Cyclopentyl-2-(2,4-dimethoxy-phenylamino)-5-methyl-5,7,8,9-tetrahydro-pyrimido[4,5-b][1,4]diazepin-6-one] was run?
**A.** > 7.00

**Q.** `COc1ccc(CNc2ncc3c(n2)N(C2CCCC2)CCC(=O)N3C)cc1` [compound 92, 9-Cyclopentyl-2-(4-methoxy-benzylamino)-5-methyl-5,7,8,9-tetrahydro-pyrimido[4,5-b][1,4]diazepin-6-one] was tested. Which pIC50 did it give?
**A.** > 5.00

**Q.** How did the pIC50 turn out when `CN1C(=O)CCN(C2CCCC2)c2nc(NCc3cccs3)ncc21` [compound 94, 9-Cyclopentyl-5-methyl-2-[(thiophen-2-ylmethyl)-amino]-5,7,8,9-tetrahydro-pyrimido[4,5-b][1,4]diazepin-6-one] was run?
**A.** > 5.00

**Q.** `COc1cc(C(=O)Nc2ccccc2)ccc1Nc1ncc2c(n1)N(C1CCCC1)CCC(=O)N2C` [compound 95, 4-(9-Cyclopentyl-5-methyl-6-oxo-6,7,8,9-tetrahydro-5H-pyrimido[4,5-b][1,4]diazepin-2-ylamino)-3-methoxy-N-phenyl-benzamide] was tested. Which pIC50 did it give?
**A.** > 5.00

**Q.** `CN1C(=O)CCN(C2CCCC2)c2nc(Nc3cccc4cc[nH]c34)ncc21` [compound 98, 9-Cyclopentyl-2-(1H-indol-7-ylamino)-5-methyl-5,7,8,9-tetrahydro-pyrimido[4,5-b][1,4]diazepin-6-one] was tested. Which pIC50 did it give?
**A.** > 6.00

**Q.** How did the pIC50 turn out when `COc1cc(C(=O)NC2CCN(C)CC2)ccc1Nc1ncc2c(n1)N(C(C)C)CC1(CC1)C(=O)N2C` [compound 99, 4-(9-Isopropyl-5-methyl-6-oxo-6,7,8,9-tetrahydro-5H-spiro[pyrimido[4,5-b][1,4]diazepin-3,1′-cyclopropane]-2-ylamino)-3-methoxy-N-(1-methyl-piperidin-4-yl)-benzamide] was run?
**A.** > 7.00

**Q.** With `COc1cc(C(=O)NC2CCN(C)CC2)ccc1Nc1ncc2c(n1)N(C1CCCC1)CC1(CCC1)C(=O)N2C` [compound 100, 4-(9-Cyclopentyl-5-methyl-6-oxo-6,7,8,9-tetrahydro-5H-spiro[pyrimido[4,5-b][1,4]diazepin-3,1′-cyclobutane]-2-ylamino)-3-methoxy-N-(1-methyl-piperidin-4-yl)-benzamide] as the compound, how does the pIC50 read?
**A.** > 7.00

**Q.** How did the pIC50 turn out when `COc1cc(C(=O)NC2CCN(C)CC2)ccc1Nc1ncc2c(n1)N(C1CCCC1)CC1(CCCC1)C(=O)N2C` [compound 101, 4-(9-Cyclopentyl-5-methyl-6-oxo-6,7.8,9-tetrahydro-5H-spiro[pyrimido[4,5-b][1,4]diazepin-3,1′-cyclopentane]-2-ylamino)-3-methoxy-N-(1-methyl-piperidin-4-yl)-benzamide] was run?
**A.** > 6.00

**Q.** With `C=CCN1CCC(=O)N(C)c2cnc(Nc3ccc(C(=O)NC4CCN(C)CC4)cc3OC)nc21` [compound 102, 4-(9-Allyl-5-methyl-6-oxo-6,7,8,9-tetrahydro-5H-pyrimido[4,5-b][1,4]diazepin-2-ylamino)-3-methoxy-N-(1-methyl-piperidin-4-yl)-benzamide] as the compound, how does the pIC50 read?
**A.** > 6.00

**Q.** With `CN1C(=O)CCN(C2CCCC2)c2nc(NCc3ccsc3)ncc21` [compound 106, 9-Cyclopentyl-5-methyl-2-[(thiophen-3-ylmethyl)-amino]-5,7,8,9-tetrahydro-pyrimido[4,5-b][1,4]diazepin-6-one] as the compound, how does the pIC50 read?
**A.** > 5.00

**Q.** `CN1C(=O)CCN(C2CCCC2)c2nc(NCc3ccoc3)ncc21` [compound 107, 9-Cyclopentyl-2-[(furan-3-ylmethyl)-amino]-5-methyl-5,7,8,9-tetrahydro-pyrimido[4,5-b][1,4]diazepin-6-one] was tested. Which pIC50 did it give?
**A.** > 5.00

**Q.** With `COc1cc(C(=O)NC2CCN(C)CC2)ccc1Nc1ncc2c(n1)N(C)CCC(=O)N2C` [compound 111, 4-(5,9-Dimethyl-6-oxo-6,7,8,9-tetrahydro-5H-pyrimido[4,5-b][1,4]diazepin-2-ylamino)-3-methoxy-N-(1-methyl-piperidin-4-yl)-benzamide] as the compound, how does the pIC50 read?
**A.** > 6.00

**Q.** How did the pIC50 turn out when `CNC(=O)c1ccc(Nc2ncc3c(n2)N(C)CCC(=O)N3C)c(OC)c1` [compound 112, 4-(5,9-Dimethyl-6-oxo-6,7,8,9-tetrahydro-5H-pyrimido[4,5-b][1,4]diazepin-2-ylamino)-3-methoxy-N-methyl-benzamide] was run?
**A.** > 5.00

**Q.** With `CNC(=O)c1ccc(Nc2ncc3c(n2)N(C(C)C)CC2(CC2)C(=O)N3C)c(OC)c1` [compound 113, 4-(9-Isopropyl-5-methyl-6-oxo-6,7,8,9-tetrahydro-5H-spiro[pyrimido[4,5-b][1,4]diazepin-3,1′-cyclopropane]-2-ylamino)-3-methoxy-N-methyl-benzamide] as the compound, how does the pIC50 read?
**A.** > 6.00

**Q.** `CN1C(=O)CCN(C2CCCC2)c2nc(NCc3ccc4c(c3)OCCO4)ncc21` [compound 127, 9-Cyclopentyl-2-[(2,3-dihydro-benzo[1,4]dioxin-6-ylmethyl)-amino]-5-methyl-5,7,8,9-tetrahydro-pyrimido[4,5-b][1,4]diazepin-6-one] was tested. Which pIC50 did it give?
**A.** > 5.00

**Q.** With `CN1C(=O)CCN(C2CCCC2)c2nc(NCc3cc4ccccc4s3)ncc21` [compound 129, 2-[(Benzo[b]thiophen-2-ylmethyl)-amino]-9-cyclopentyl-5-methyl-5,7,8,9-tetrahydro-pyrimido[4,5-b][1,4]diazepin-6-one] as the compound, how does the pIC50 read?
**A.** > 5.00

**Q.** How did the pIC50 turn out when `Cc1cccc(CNc2ncc3c(n2)N(C2CCCC2)CCC(=O)N3C)c1` [compound 131, 9-Cyclopentyl-5-methyl-2-(3-methyl-benzylamino)-5,7,8,9-tetrahydro-pyrimido[4,5-b][1,4]diazepin-6-one] was run?
**A.** > 5.00

**Q.** `CNC(=O)c1cccc(Nc2ncc3c(n2)N(C2CCCC2)CCC(=O)N3C)c1C` [compound 141, 3-(9-Cyctopentyl-5-methyl-6-oxo-6,7,8,9-tetrahydro-5H-pyrimido[4,5-b][1,4]diazepin-2-ylamino)-2,N-dimethyl-benzamide] was tested. Which pIC50 did it give?
**A.** > 5.00

**Q.** `Cc1c(Nc2ncc3c(n2)N(C2CCCC2)CCC(=O)N3C)cccc1C(=O)NCCO` [compound 142, 3-(9-Cyclopentyl-5-methyl-6-oxo-6,7,8,9-tetrahydro-5H-pyrimido[4,5-b][1,4]diazepin-2-ylamino)-N-(2-hydroxy-ethyl)-2-methyl-benzamide] was tested. Which pIC50 did it give?
**A.** > 5.00
